The target of one assay is T1, α-synuclein (Rattus norvegicus, UniProt P37377).
T1 construct: from tissue; host or cells: substantia nigra of Sprague-Dawley rats
In words: DOPAL-triggered α-synuclein aggregation in vivo, intranigral injection, Western blot. Conditions: rat SN injected with 1 μg or 0.2 μg DOPAL, 1 and 4 hours. The text has this: Western blot of DOPAL-triggered AS aggregation in vivo Intranigral DOPAL injections and tissue preparation for Western blot. The housing and nutrition of the rats used in this study and all procedures performed on them conformed to standards set forth in the Guide for the Care and Use of Laboratory Animals of the National Research Council (National Academy Press, 1996). The experimental protocols reported herein were reviewed and approved by the Animal Care Committee of the Saint Louis University.
The details of the surgical and immunohistochemical methods have been previously described (Burke et al., Brain Res 989:205-213, 2003). Briefly, 2-month-old Sprague-Dawley rats (300 g; Harlan, Indianapolis, Ind., USA) were deeply anesthetized with 4% induction and maintained with 1% isoflurane. The heads of the rats were fixed in a stereotaxic apparatus (David Kopf, Tujunga, CA, USA). […]
Rats for Western blot analysis were killed after 4 h by injecting pentobarbital (100 mg/kg, IP). […] The black microspheres were identified in the pellets and supernatants were analyzed with Western blot as described above using AS 202 and J3-actin antibodies. For the 4-h 1.0-μg DOPAL and control SN injections, the density of the bands on the blot was determined using the UnScan it program (Silk Scientific, Orem, Utah, USA). The results were expressed as units of AS aggregate/unit of actin. […]

The subject of assay [1] is dopaminergic neurons in the substantia nigra. In words: Tyrosine hydroxylase immunohistochemistry and densitometry after DOPAL injection into substantia nigra. Type of assay: in vivo, rat. Here is the method: Immunohistochemistry. Eighteen hours (two rats) or 5 days following the surgery the rats were anesthetized and perfused through the left ventricle of the heart with 0.1 M phosphate buffer containing 4% paraformaldehyde. The brains were removed, post-fixed for at least 4 h, sunk in 25% sucrose, and sectioned frozen at 50 pm with a sliding microtome. Adjacent series of sections were subjected to a conventional immunoperoxidase protocol using antibodies against tyrosine hydroxylase (TH; Sigma, monoclonal, made in […], used at a dilution of 1:6000), neuronal nuclear antigen (NeuN, Chemicon, Temecula, Calif., USA, made in rabbit, used at 1:20,000) or glial fibrillary acidic protein (GFAP, made in rabbit, used at 1:5000). Briefly, the sections were immersed overnight in 0.1 M Sorenson's phosphate buffer (SPB, pH 7.4) containing 0.2% Triton X-100 (SPB/Triton) and primary antibody with agitation. The following morning they were thrice rinsed in SPB/Triton and immersed for 1 h in SPB/Triton containing biotinylated secondary antibodies against the host species of the primary antibodies, used at a dilution of 1:200. The sections were again thrice rinsed in SPB/Triton and then immersed in SPB/Triton containing ABC reagents (Vector, Burlingame, Calif., USA) used at a dilution of 1:200. After further rinsing in SPB the sections were reacted with 3,3-diaminobenzidine (DAB) and hydrogen peroxide to produce an insoluble brown reaction product that was further intensified with osmium and thiocarbohydrazide as has been described. All immersions and rinses were done at room temperature. In addition, a series of sections from many of the brains was mounted and processed for Nissl staining using a standard cresyl violet staining procedure. […]
Determination of DOPAL-induced Parkinson's disease-like behavior Injections of DOPAL or ALDH1A1 antisense oligo into rat SN. […] After 5-7 weeks, rats were injected with apomorphine (0.4 mg/kg, subcutaneously) and rotational asymmetry determined in each group just prior to sacrifice. […]

The source of these data is patent publication US20120005765A1, “ANIMAL MODEL FOR PARKINSON'S DISEASE” (Saint Louis University, priority 2010, published 2012).

“Also recorded” adds a separate entry of the source.

Take `O=CCc1ccc(O)c(O)c1` [DOPAL, 3,4-dihydroxyphenylacetaldehyde]: on α-synuclein, the “aggregation of α-synuclein in vivo” value is “triggers a selective dose and time dependent aggregation; also recorded: even small amounts of DOPAL still aggregate α-synuclein”. In addition, the “immunoreactivity of TH in the SN ipsilateral to injection” value in assay [1] (vs contralateral non-injected side) is listed as “decrease”. Besides, the “reduction in TH immunoreactivity in the striatum ipsilateral to injection” value in assay [1] (vs contralateral non-injected side, background subtracted) stood at 28%. The “loss of TH immunoreactivity by spot density, ventrolateral striatum ipsilateral to injection” value in assay [1] (vs contralateral side) turned out to be 80%.
